Test [1] has as its target T1, TRPM8 channels (Homo sapiens, UniProt Q7Z2W7). Particulars: FL; data from Behrendt et al., 2004; cited from earlier work.
The test system of test [2] is cold-sensitive nerve terminals of the mouse cornea. Briefly: Nerve terminal impulse (NTI) activity recorded in vitro from cold-sensitive nerve terminals of the cornea. Here is the method:
To define functionally the thermal sensitivity and encoding capacity of intact cold-sensitive nerve terminals, nerve terminal impulse (NTI) activity from the cornea of wild-type mice eyes was recorded ‘in vitro’ (Brock, J. A., et al., 1998. J. Physiol 512:211-217).
J. Neurosci. 26:12512-12525, Jordt, S. E. et al. 2004. Nature 427:260-265).

Test [3] shares this test system. The test is described as above. The source holds these as a separate data set.
For test [4], the target named is T1, TRPM8 channels. As to conditions: CI; data from Bodding et al., 2007; cited from earlier work.
Test [5] deals with T1, TRPM8 channels. As to conditions: EP, cited from earlier work.
Test [6] has as its system eyes of TRPM8(−/−) and wild type mice. Kind of test: Tear flow (phenol red thread) after topical application to the eye. Type of test: in vivo, mouse. Particulars: capsaicin 1 μM, AITC 500 μM. As for the experimental part: FIG. 4. Dependence of tear secretion rate on corneal temperature. a. […] Shaded and filled columns represent tearing rate in animals at mean neutral (28.4° C.) or hot temperature (42.5° C.), respectively. The number of measures of successive columns is 35, 11, 23, 9 and 6 observations **p<0.01, ***p<0.001 Mann-Whitney test). b. Increase in tearing rate measured in wild type animals (black columns) and TRPM8−/−(grey columns) elicited by application during 60 s, of a filter paper soaked in capsaicin 1 μM (n=12 and 15) or 500 μM allyl-isothyocyanate. […] Measurements of tear secretion were performed 1 minute after removing the paper with the drug. Statistically significant differences were found with respect to baseline lacrimation, using the Wilcoxon test (*p<0.05, ***p<0.001). c. Mean tearing rate expressed as the wetted length value of the phenol red thread, measured in the eyes of 11 human volunteers at environment temperatures of 18° C., 25° C. and 43° C. that lead to corneal surface temperatures of 32.4±0.4° C.; 34.2±0.1° C. and 36.0±0.2° C. respectively.
Next, it was reasoned that if tear production is associated to the neural activity of cold thermoreceptor fibers, basal tear flow should be reduced in TRPM8(−/−) mice, in which spontaneous activity is absent.

The target in test [7] is T2, native TRPM8 channel (Homo sapiens, UniProt Q7Z2W7). As to conditions: CI, cited from earlier work.
T2 sequence (Q7Z2W7 whole entry): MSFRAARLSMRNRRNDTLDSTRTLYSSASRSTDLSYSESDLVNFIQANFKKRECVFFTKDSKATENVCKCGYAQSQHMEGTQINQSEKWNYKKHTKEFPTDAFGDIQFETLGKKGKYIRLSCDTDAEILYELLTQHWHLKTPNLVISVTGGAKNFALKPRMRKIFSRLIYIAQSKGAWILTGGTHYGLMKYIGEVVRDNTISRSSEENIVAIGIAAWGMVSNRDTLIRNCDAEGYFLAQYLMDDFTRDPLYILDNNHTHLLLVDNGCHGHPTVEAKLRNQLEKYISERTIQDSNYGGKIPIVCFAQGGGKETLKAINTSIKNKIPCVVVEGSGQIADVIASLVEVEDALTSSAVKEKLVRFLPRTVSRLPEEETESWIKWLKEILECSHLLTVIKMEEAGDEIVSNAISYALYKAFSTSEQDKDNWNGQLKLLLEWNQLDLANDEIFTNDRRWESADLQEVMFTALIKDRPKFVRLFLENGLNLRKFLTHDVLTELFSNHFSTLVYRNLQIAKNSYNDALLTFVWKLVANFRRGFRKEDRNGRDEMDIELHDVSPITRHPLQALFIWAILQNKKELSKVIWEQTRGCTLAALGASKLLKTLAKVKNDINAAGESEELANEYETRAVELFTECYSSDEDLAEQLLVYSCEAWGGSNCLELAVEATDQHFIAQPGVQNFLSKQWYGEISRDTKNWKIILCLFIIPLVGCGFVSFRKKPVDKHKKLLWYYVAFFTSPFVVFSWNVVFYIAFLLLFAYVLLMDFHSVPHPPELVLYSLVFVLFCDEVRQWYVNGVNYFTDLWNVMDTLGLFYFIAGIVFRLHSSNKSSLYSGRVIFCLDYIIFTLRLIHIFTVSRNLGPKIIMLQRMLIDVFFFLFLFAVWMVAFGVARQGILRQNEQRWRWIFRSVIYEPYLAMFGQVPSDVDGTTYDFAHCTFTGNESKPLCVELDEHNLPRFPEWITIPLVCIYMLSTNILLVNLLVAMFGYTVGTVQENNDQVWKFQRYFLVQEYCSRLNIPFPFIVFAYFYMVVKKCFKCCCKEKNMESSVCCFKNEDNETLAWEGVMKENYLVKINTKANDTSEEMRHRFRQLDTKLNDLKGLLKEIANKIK
Test [8] concerns the target T2, native TRPM8 channel. Particulars: EP, cited from earlier work.
In test [9] the target is T2, native TRPM8 channel. Particulars: read-out: IC50 menthol; SF; 20 μM menthol at 22° C.; Ortar et al. 2010; cited from earlier work.
Test [10] has as its target T2, native TRPM8 channel. As to conditions: read-out: IC50 menthol; 100 μM menthol; FL; Behrendt et al. 2004; cited from earlier work.
Where [11] appears, read: cold, Malkia et al. 2007, read-out: IC50 cold.
The mark [12] stands for this setting: cold, +80 mV, Malkia et al. 2007, read-out: IC50 cold.
Setting [13] is: read-out: IC50 menthol, 100 μM menthol, −70 mV, Weil 2005.

Where two headings read alike, the source gives them in different places.

T1 sequence (Q7Z2W7 whole entry): as above

As a reminder, the EC50 is the concentration giving half of the maximal effect. In the case of `CC(C)[C@@H]1CC[C@@H](C)CC12OCC(CO)O2` (mixture of isomers) [Frescolat MGA], the EC50 at TRPM8 channels [1] is 4.8 ± 1.1 µM.
As for `CC(C)[C@@H]1CC[C@@H](C)C[C@H]1OCC(O)CO` (mixture of isomers) [Cooling Agent 10], the EC50 on TRPM8 channels [1] was 6 ± 2.2 µM.
For `CC(C)[C@@H]1CC[C@@H](C)C[C@H]1O` (relative stereo) [Menthol], the “percentage of terminals with a bursting firing pattern at 34° C.” value in test [2] (during perfusion with menthol 50 μM, 5% before treatment) is reported as 44%. The “temperature of silencing during cooling ramps” value in test [2] (menthol 50 μM, control 23.8±0.4) is 25.2±0.4 °C. Besides, in test [2] (menthol 50 μM, control 26.7±0.5, n=44), the “temperature at which peak frequency is reached during cooling ramps” value came to 28.6±0.5 °C. The spontaneous activity in test [2] (menthol 50 μM, from 3.4±0.3 before, n=44) came out at 18.4±1.4 impulses/s. Further, the “tested endings with increased spontaneous activity” value in test [2] (menthol 50 μM, n=44) is reported as 98%. The “trigger frequency at basal temperature of 34° C. or during cooling ramps” value in test [3] (50 μM menthol perfusion, TRPM8(−/−) corneas, n=6) is listed as “no increase”. Besides, the “trigger frequency in basal temperature, cold threshold and peak frequency” value in test [3] (menthol 50 μM, TRPM8(+/−) mice, significantly less than in TRPM8(+/+)) is reported as “enhanced”.
With `COc1ccc(NC(=O)[C@@H]2C[C@H](C)CC[C@H]2C(C)C)cc1` (stereo in doubt) [WS-12, 2-isopropyl-5-methyl-cyclohexanecarboxylic acid (4-methoxyphenyl)-amide], the EC50 on TRPM8 channels [4] was 0.193 µM; at TRPM8 channels [5] (data from Beck et al., 2007) it was 0.039 µM; on TRPM8 channels [5] (data from Bodding et al., 2007), 0.68 µM.
In the case of `C=CCN=C=S` [AITC, allyl-isothiocyanate], the tear flow entry in test [6] is “significantly increased”. The “effect on spontaneous or cold-evoked activity” value in test [2] (AITC 100 μM, 28 cold-sensitive nerve endings tested) is on record as “failed to modify the spontaneous or cold-evoked activity in 24 of them”. For the same compound, the “nerve endings with significant increase in trigger frequency at basal temperature” value in test [2] (AITC 100 μM, of 28 endings tested) is reported as “four”.
A word on the IC50: it is the point on the concentration scale where inhibition reaches its midpoint. Regarding `CC(C)(C)c1ccc(NC(=O)N2CCN(c3ncccc3Cl)CC2)cc1` [BCTC, N-(4-tert-butyl-phenyl)-4-(3-chloropyridin-2-yl) tetrahydropyrazine-1(2H)-carboxamide], the IC50 at native TRPM8 channel [7] (setting [11]) was 680 ± 60 nM; at native TRPM8 channel [8] (setting [12]), 540 ± 40 nM; at native TRPM8 channel [8] (read-out: IC50 menthol, 100 μM menthol, +80 mV, modified by Madrid 2006), 340 ± 40 nM. Further, the “spontaneous activity and trigger frequency of cold- and menthol-evoked discharges” value in test [2] (BCTC 10 μM perfusion during 90 min) is “decreased gradually and almost silenced”. For the same compound, the “effects of BCTC on nerve ending activity in TRPA1(−/−) mice” value in test [2] (BCTC 10 μM, TRPA1(−/−) mice) is recorded as “also observed”. Also, in test [2] (after BCTC 10 μM removal), the “decline in activity upon removal of the drug” value is “reversed partially”.
As to `CCOC(=O)C(C)NC(=O)C1C[C@H](C)CC[C@H]1C(C)C` (some centres unmarked) [CPS-369], the EC50 at TRPM8 channels [4] was 3.6 µM.
For the compound `C[C@@H]1CN(c2ncccc2Cl)CCN1C(=O)Nc1ccc(C(F)(F)F)cc1` [CTPC, (2R)-4-(3-chloro-2-pyridinyl)-2-methyl-N-[4-(trifluoromethyl)phenyl]-1-pyperazine-carboxamide], the IC50 on native TRPM8 channel [8] (setting [13]) was 131 ± 14 nM.
For `Oc1cc2c(cc1O)CN(C(=S)NCCc1ccc(Cl)cc1)CCC2` [Capsazepine, N-[2-(4-chlorophenyl)ethyl]-1,3,4,5-tetrahydro-7,8-dihydroxy-2H-2-benzazepine-2-carbothioamide], the IC50 at native TRPM8 channel [7] (cold, Malkia et al. 2009, read-out: IC50 cold) is 12000 ± 2000 nM.
`Clc1ccccc1C(c1ccccc1)(c1ccccc1)n1ccnc1` [Clotrimazole, 1-[(2-chlorophenyl)diphenylmethyl]-1H-imidazol]: the IC50 on native TRPM8 channel [8] (read-out: IC50 menthol, 100 μM menthol, +50 mV, Meseguer et al. 2008) is 1200 nM.
As for `Nc1ccncc1` [Compound 4-AP, 4-aminopyridine], in [2] (4-AP 100 μM), the “cold threshold of the endings” value is “no parallel changes”. Also, the “mean peak frequency of cold responses depressed” value in test [2] (4-AP 100 μM, n=9) is reported as 39±6 % of the control value. Also, the “units with significantly increased spontaneous activity” value in test [2] (4-AP 100 μM, nine studied units) is “three out of nine”.
On to `CC12CCC(CC1)C(C)(C)O2` [Eucalyptol], for which the EC50 at TRPM8 channels [1] is 7700 ± 2000 µM; on TRPM8 channels [5] (data from McKemy et al., 2002), 3400 ± 400 µM.
As for `CC(O)C(=O)O[C@@H]1C[C@H](C)CC[C@H]1C(C)C` (some centres unmarked) [Frescolat ML], the EC50 on TRPM8 channels [1] was 3.3 ± 1.5 µM.
Regarding `CC(CC=O)CCCC(C)(C)O` (centres unmarked) [Hydroxyl-citronellal], the EC50 on TRPM8 channels [1] is 19600 ± 2200 µM.
As to `C=C[C@@](C)(O)CCC=C(C)C` [Linalool, Linallol], on TRPM8 channels [1], the EC50 is 6700 ± 2000 µM.
With `CC(C)[C@@H]1CC[C@@H](C)C[C@H]1NC(=O)c1ccc(-c2ccccc2)cc1` [MAD1d, N-[(1R,2S,5R)-2-Isopropyl-5-methylcyclohexyl]biphenyl-4-carboxamide], on native TRPM8 channel [9], the IC50 was 20 ± 2.4 nM.
Take `CC1CCC(C(C)(C)O)C(O)C1` (centres unmarked) [PMD-38, p-menthane-3,8-diol]: the EC50 on TRPM8 channels [1] was 31 ± 1.1 µM.
Consider `c1cnc2c(c1)ccc1cccnc12` [Phenanthroline], for which the IC50 on native TRPM8 channel [7] (setting [11]) was 100000 ± 20000 nM; on native TRPM8 channel [8] (setting [12]) it was 180000 ± 20000 nM.
As for `CCN(CCNC(=O)Nc1ccccc1Br)c1cccc(C)c1` [SB-452533, N-(2-bhromophenyl)-N′-(2-[ethyl(3-methylphenyl)amino]ethyl)urea], on native TRPM8 channel [8] (setting [13]), the IC50 was 571 ± 77 nM.
Turning to `COc1ccc(CCCOC(Cn2ccnc2)c2ccc(OC)cc2)cc1` (centres unmarked) [SKF96365], the IC50 was 1000 ± 200 nM at native TRPM8 channel [7] (setting [11]); 3000 ± 1000 nM on native TRPM8 channel [7] (read-out: IC50 menthol, 100 μM menthol, modified by Madrid 2006); 800 ± 100 nM on native TRPM8 channel [8] (setting [12]).
For the compound `CCNC(=O)C1CC(C)CCC1C(C)C` (centres unmarked) [WS-3, N-ethyl-p-menthane-3-carboxamide], the concentration for a half-maximal effect (EC50) at TRPM8 channels [1] was 3.7 ± 1.7 µM.
`CC1CCC(C(C)C)C(C(=O)NC(C)(C)CO)C1` (centres unmarked) [WS-11, 2-isopropyl-5-methyl-cyclohexanecarboxylic acid (2-hydroxy-1,1-dimethyl-ethyl)-amide]: the EC50 at TRPM8 channels [5] (data from Beck et al., 2007) was 6.25 µM.
For `CC1CCC(C(C)C)C(C(=O)NC(C)(C)C)C1` (centres unmarked) [WS-14, 2-isopropyl-5-methyl-cyclohexanecarboxylic acid tert-butylamide], the EC50 at TRPM8 channels [5] (data from Beck et al., 2007) is 21.2 µM.
Regarding `CC1CCC(C(C)C)C(C(=O)OCC(O)CO)C1` (centres unmarked) [WS-30, 2-isopropyl-5-methyl-cyclohexanecarboxylic acid ester 2,3-dihydroxy-propyl], on TRPM8 channels [4], the EC50 was 5.6 µM.
As to `CCCCCCCP(=O)(C(C)CC)C(C)CC` (centres unmarked) [WS-148, 1-(di-sec-butyl-phosphinoyl)-heptane], the EC50 on TRPM8 channels [4] was 4.1 µM.
With `COc1cc(CNC(=O)CCCC/C=C/C(C)C)ccc1O` [capsaicin], the tear flow entry in [6] is given as “significantly increased”. Besides, the “cold-sensitive endings that responded” value in [2] (100 nM capsaicin, wild-type mice) is on record as 65%. Also, the “impulse discharge evoked in active units” value in [3] (capsaicin 100 nM, TRPM8(−/−) corneas, six units tested) was “evoked a few impulses in two endings (5 and 8 impulses, respectively) and a vigorous, discharge lasting more than 30 s in another”.
`CC(C)(C)c1ccc(NC(=S)N2CCN(c3ncccc3Cl)CC2)cc1` [thio-BCTC, N-(4-tert-butyl-phenyl)-4-(3-chloropyridin-2-yl) tetrahydropyrazine-1(2H)-(thio)carboxamide]: on native TRPM8 channel [10], the half-maximal inhibitory concentration (IC50) is 3.5 ± 1.1 µM.

The values are drawn from patent US9901549B2, “Method for treating vaginal dryness by administering transient receptor potential cation channel subfamily M member 8 (TRPM8) receptor agonists” (UNIVERSIDAD MIGUEL HERNÁNDEZ DE ELCHE, priority 2010, dated 2018).
